Experimental data as given in patent publication US9564604B2, “Fused polycyclic aromatic compounds, organic semiconductor material and thin film including the same, and method for producing an organic semiconductor device” (Nippon Kayaku Kabushiki Kaisha, priority 2012, dated 2017).

Legend:
[1] = CV (cyclic voltammetry) measurement in dichloromethane; assay type: physicochemical; conditions: n-BuN4PF6 0.1 M, Pt electrodes, silver-silver chloride reference, 100 mV/sec
Method: CV measurement was conducted by using dichloromethane as solvent, tetrabutylammonium hexafluorophosphate (n-BuN4PF6, 0.1 M) as a supporting electrolyte, platinum wires as working electrodes and counter electrodes, and a silver-silver chloride electrodes as reference electrodes, and by sweeping the electric potential at a rate of 100 mV/sec. In all Compounds 101, 110, 112, 136, 201, 210, 212, 214, and 236, two pairs of oxidation-reduction waves were observed.

[2] = Solubility measurement in chloroform (saturated solution); assay type: physicochemical; conditions: mass percent concentration of saturated chloroform solution
Method: Solubility was measured by using chloroform as solvent.

SMILES	first half-wave reduction potential [1] [V]	second half-wave reduction potential [1] [V]	Solubility in chloroform [2] [w/w %]
CC(C)[Si](c1cc2c(=C(C#N)C#N)cc3c(cc(=C(C#N)C#N)c4cc([Si](C(C)C)(C(C)C)C(C)C)sc43)c2s1)(C(C)C)C(C)C [Compound 136]	0.06	−0.28	
CCCCCCCCc1cc2c(=C(C#N)C#N)cc3c(cc(=C(C#N)C#N)c4cc(CCCCCCCC)sc43)c2s1 [Compound 110]	0.06	−0.28	0.52
N#CC(C#N)=c1cc2c3ccsc3c(=C(C#N)C#N)cc2c2ccsc12 [Compound 201]	0.06	−0.28	

More lines, now with the values ahead:

first half-wave reduction potential [1] [V]	second half-wave reduction potential [1] [V]	Solubility in chloroform [2] [w/w %]	SMILES
0.06	−0.28		CCCCCCCCCCCCCCCCc1cc2c(s1)c(=C(C#N)C#N)cc1c3cc(CCCCCCCCCCCCCCCC)sc3c(=C(C#N)C#N)cc21 [Compound 214]
0.06	−0.28		CCCCCCCCc1cc2c(s1)c(=C(C#N)C#N)cc1c3cc(CCCCCCCC)sc3c(=C(C#N)C#N)cc21 [Compound 210]
0.06	−0.28		CCCCCCCCCCCCc1cc2c(s1)c(=C(C#N)C#N)cc1c3cc(CCCCCCCCCCCC)sc3c(=C(C#N)C#N)cc21 [Compound 212]
0.06	−0.28	0.22	CCCCCCCCCCCCc1cc2c(=C(C#N)C#N)cc3c(cc(=C(C#N)C#N)c4cc(CCCCCCCCCCCC)sc43)c2s1 [Compound 112]
